{
  "source": "patent US20060173015A1",
  "about": "“Cyclohexyldiamines as selective alpha 1a/1d adrenoreceptor antagonists for the treatment of benign prostatic hypertrophy and lower urinary tract symptoms” (priority 2004, published 2006)",
  "system": "MAP",
  "assay": "Phenylephrine-induced MAP in a conscious canine model",
  "assay_type": "in vivo",
  "conditions": "conscious dog",
  "procedure": "In-Vivo Evaluation of α1-Adrenergic Antagonists on IUP and MAP in a Conscious Canine Model\nAn anesthetized dog was fitted with a balloon catheter for the measurement of changes in prostatic IUP and with a number of implanted pressure transducers and telemetry transmitters for measuring MAP.\nThe pressor effects of challenge doses […] of the α-adrenergic agonist phenylephrine upon IUP and MAP were measured before and at various time points after a single dose (p.o.) of an α-adrenergic antagonist test compound (Compound 69) of the present invention.\nEach treatment group was dosed with a test compound (0.1, 0.3, 1.0 and 3.0 mg/kg) in four separate experiments. The first challenge dose of phenylephrine for each treatment group was administered at the time of the test compound dose (time 0). The value for the first challenge dose represents an average of up to three challenge doses administered prior to time 0.\nSubsequent challenge doses for all treatment groups were administered at 30 min. then one hour and two hours after time 0.\nThe final challenge doses for the 0.1 and 0.3 mg/kg groups were administered at four and six hours after time 0. The final challenge doses for the 1.0 mg/kg group were administered at four, six and eight hours after time 0. The final challenge doses for the 3.0 mg/kg group were administered at four, six, 12 and 24 hours after time 0.\nA pressure transducer and telemetry transmitter (DSI TA11PA-D70 35 cm, Data Sciences International, St. Paul, Minn.) were implanted according to directions in “PA Device Surgical Manual” provided by the manufacturer.\nA test compound was administered via the cephalic or saphenous vein using an appropriately sized IV catheter (Surflo, Terumo Medical Corporation or equivalent).\nPrior to test compound administration, IUP and MAP responses to an individualized dose of phenylephrine (either 10 or 15 μg/kg IV, depending on the individual animal's response) was repeated 2 to 3 times to establish a baseline response. After test compound administration, the individualized phenylephrine dose was administered to each animal at predetermined intervals over a period of up to 24 hours.\nData for phenylephrine-induced changes in IUP and MAP were tabulated for each treatment group and each experiment. A mean value and standard deviation for the phenylephrine-induced changes to the effect of a test compound on IUP and MAP at each dose was calculated and tabulated for each treatment group over the length of the study.",
  "data": [
    {"smiles": "COc1ccc(S(=O)(=O)N[C@H]2CC[C@@H](N3CCN(c4ccccc4OCC(F)(F)F)CC3)CC2)cc1OC", "note": "[Cpd 69, 3,4-Dimethoxy-N-cis-(4-{4-[2-(2,2,2-trifluoro-ethoxy)-phenyl]-piperazin-1-yl}-cyclohexyl)-benzenesulfonamide]", "values": [
      {"measurement": "MAP, normalized % of baseline (mean)", "setting": "0.1 mg/kg p.o., 0 hrs (baseline)", "value": 100, "unit": "%"},
      {"measurement": "MAP, normalized % of baseline (mean)", "setting": "0.1 mg/kg p.o., 0.5 hrs after dose", "value": 87.7, "unit": "%"},
      {"measurement": "MAP, normalized % of baseline (mean)", "setting": "0.1 mg/kg p.o., 1 hrs after dose", "value": 93.3, "unit": "%"},
      {"measurement": "MAP, normalized % of baseline (mean)", "setting": "0.1 mg/kg p.o., 2 hrs after dose", "value": 80.1, "unit": "%"},
      {"measurement": "MAP, normalized % of baseline (mean)", "setting": "0.1 mg/kg p.o., 4 hrs after dose", "value": 89.7, "unit": "%"},
      {"measurement": "MAP, normalized % of baseline (mean)", "setting": "0.1 mg/kg p.o., 6 hrs after dose", "value": 91.0, "unit": "%"},
      {"measurement": "MAP, normalized % of baseline (mean)", "setting": "0.3 mg/kg p.o., 0 hrs (baseline)", "value": 100, "unit": "%"},
      {"measurement": "MAP, normalized % of baseline (mean)", "setting": "0.3 mg/kg p.o., 0.5 hrs after dose", "value": 64.9, "unit": "%"},
      {"measurement": "MAP, normalized % of baseline (mean)", "setting": "0.3 mg/kg p.o., 1 hrs after dose", "value": 59.3, "unit": "%"},
      {"measurement": "MAP, normalized % of baseline (mean)", "setting": "0.3 mg/kg p.o., 2 hrs after dose", "value": 67.7, "unit": "%"},
      {"measurement": "MAP, normalized % of baseline (mean)", "setting": "0.3 mg/kg p.o., 4 hrs after dose", "value": 85.6, "unit": "%"},
      {"measurement": "MAP, normalized % of baseline (mean)", "setting": "0.3 mg/kg p.o., 6 hrs after dose", "value": 103.9, "unit": "%"},
      {"measurement": "MAP, normalized % of baseline (mean)", "setting": "1.0 mg/kg p.o., 0 hrs (baseline)", "value": 100, "unit": "%"},
      {"measurement": "MAP, normalized % of baseline (mean)", "setting": "1.0 mg/kg p.o., 0.5 hrs after dose", "value": 47.3, "unit": "%"},
      {"measurement": "MAP, normalized % of baseline (mean)", "setting": "1.0 mg/kg p.o., 1 hrs after dose", "value": 37.2, "unit": "%"},
      {"measurement": "MAP, normalized % of baseline (mean)", "setting": "1.0 mg/kg p.o., 2 hrs after dose", "value": 52.8, "unit": "%"},
      {"measurement": "MAP, normalized % of baseline (mean)", "setting": "1.0 mg/kg p.o., 4 hrs after dose", "value": 61.3, "unit": "%"},
      {"measurement": "MAP, normalized % of baseline (mean)", "setting": "1.0 mg/kg p.o., 6 hrs after dose", "value": 76.6, "unit": "%"},
      {"measurement": "MAP, normalized % of baseline (mean)", "setting": "1.0 mg/kg p.o., 8 hrs after dose", "value": 87.8, "unit": "%"},
      {"measurement": "MAP, normalized % of baseline (mean)", "setting": "3.0 mg/kg p.o., 0 hrs (baseline)", "value": 100, "unit": "%"},
      {"measurement": "MAP, normalized % of baseline (mean)", "setting": "3.0 mg/kg p.o., 0.5 hrs after dose", "value": 43.4, "unit": "%"},
      {"measurement": "MAP, normalized % of baseline (mean)", "setting": "3.0 mg/kg p.o., 1 hrs after dose", "value": 19.7, "unit": "%"},
      {"measurement": "MAP, normalized % of baseline (mean)", "setting": "3.0 mg/kg p.o., 2 hrs after dose", "value": 21.7, "unit": "%"},
      {"measurement": "MAP, normalized % of baseline (mean)", "setting": "3.0 mg/kg p.o., 4 hrs after dose", "value": 39.8, "unit": "%"},
      {"measurement": "MAP, normalized % of baseline (mean)", "setting": "3.0 mg/kg p.o., 6 hrs after dose", "value": 50.2, "unit": "%"},
      {"measurement": "MAP, normalized % of baseline (mean)", "setting": "3.0 mg/kg p.o., 12 hrs after dose", "value": 80.2, "unit": "%"},
      {"measurement": "MAP, normalized % of baseline (mean)", "setting": "3.0 mg/kg p.o., 24 hrs after dose", "value": 95.1, "unit": "%"}
    ]}
  ]
}
